From ChEMBL document CHEMBL5505969, “Discovery of new piperaquine hybrid analogs linked by triazolopyrimidine and pyrazolopyrimidine scaffolds with antiplasmodial and transmission blocking activities” (Eur J Med Chem, 2024)
Active and inactive are the calls of the source. The calls are words filed in the database; no cut-off is given here.

Tests used:
[1] = molecular target: T1, Dihydroorotate dehydrogenase (quinone), mitochondrial (Plasmodium falciparum (isolate 3D7)) (UniProt Q08210); assay: Inhibition of Plasmodium falciparum DHODH assessed as residual activity at 100 uM measured over 60 secs by DCIP dye based colorimetric assay relative to control; details: time > 60.0 sec
T1 sequence (whole entry): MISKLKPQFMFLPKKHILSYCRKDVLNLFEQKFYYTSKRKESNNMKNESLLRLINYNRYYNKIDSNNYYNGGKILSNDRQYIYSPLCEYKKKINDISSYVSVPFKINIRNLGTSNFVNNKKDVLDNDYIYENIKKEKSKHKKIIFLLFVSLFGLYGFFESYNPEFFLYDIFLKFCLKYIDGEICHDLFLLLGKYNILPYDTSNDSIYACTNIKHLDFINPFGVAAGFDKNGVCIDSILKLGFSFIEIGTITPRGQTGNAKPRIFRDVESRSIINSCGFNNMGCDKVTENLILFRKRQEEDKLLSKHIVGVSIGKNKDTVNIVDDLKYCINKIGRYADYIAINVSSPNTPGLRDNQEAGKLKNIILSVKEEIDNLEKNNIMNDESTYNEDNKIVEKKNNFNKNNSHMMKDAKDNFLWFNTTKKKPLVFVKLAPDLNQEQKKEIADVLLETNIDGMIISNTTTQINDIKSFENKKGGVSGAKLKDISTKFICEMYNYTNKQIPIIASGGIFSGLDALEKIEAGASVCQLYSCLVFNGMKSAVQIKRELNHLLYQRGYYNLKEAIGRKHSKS

[2] = molecular target: T1, Dihydroorotate dehydrogenase (quinone), mitochondrial (Plasmodium falciparum (isolate 3D7)); assay: Inhibition of Plasmodium falciparum DHODH at 100 uM measured over 60 secs by DCIP dye based colorimetric assay relative to control; details: time > 60.0 sec
Plasmodium berghei = assay: Antiplasmodial activity against GFP-expressing Plasmodium berghei HSP70 infected in CD-1 mouse assessed as inhibition of ookinete formation at 10 uM measured after 22 hrs by giemsa staining based microscopic analysis; type: functional; details: read-out: INH
[3] = Cytotoxicity against human HepG2 cells assessed as reduction in cell viability incubated for 72 hrs by MTT assay; type: toxicity, cell-based
[4] = Selectivity index, ratio of CC50 for human HepG2 cells to IC50 for antiplasmodial activity against sorbitol-synchronized ring stage chloroquine sensitive Plasmodium falciparum 3D7 infected in erythrocytes; type: toxicity, cell-based; details: Plasmodium falciparum 3D7 in erythrocytes, read-out: Ratio CC50/IC50
Plasmodium falciparum [5] = assay: Antiplasmodial activity against sorbitol-synchronized ring stage chloroquine sensitive Plasmodium falciparum 3D7 infected in erythrocytes measured after 48 hrs by SYBR green dye based fluorescence analysis; type: functional, organism-based; details: 3D7, Erythrocyte
Plasmodium falciparum [6] = assay: Antiplasmodial activity against sorbitol-synchronized ring stage 2-(1,1-difluoroethyl)-5-methyl-N-(4-(pentafluoro-l6-sulfaneyl)phenyl)-[1,2,4]triazolo[1,5-a]pyrimidin-7-amine resistant Plasmodium falciparum Dd2 infected in erythrocytes measured after 48 hrs by SYBR green dye based fluorescence analysis; type: functional, organism-based; details: Dd2, Erythrocyte
Plasmodium falciparum [7] = assay: (§1) Resistance index, ratio of IC50 for antiplasmodial activity against sorbitol-synchronized ring stage 2-(1,1-difluoroethyl)-5-methyl-N-(4-(pentafluoro-l6-sulfaneyl)phenyl)-[1,2,4]triazolo[1,5-a]pyrimidin-7-amine resistant Plasmodium falciparum Dd2 infected in erythrocytes to IC50 for antiplasmodial activity against sorbitol-synchronized ring stage chloroquine sensitive Plasmodium falciparum 3D7 infected in erythrocytes; type: functional
Plasmodium falciparum [8] = assay: (§2) Resistance index, ratio of IC50 for antiplasmodial activity against sorbitol-synchronized ring stage chloroquine, mefloquine and pyrimethamine resistant Plasmodium falciparum Dd2 harboring N86F/M74I/ N75E/K75T mutation in MDR1 gene, N51I/C59R/S108N mutation in DHFR gene and S436F/A437G/A613S mutation in DHPS gene infected in erythrocytes to IC50 for antiplasmodial activity against sorbitol-synchronized ring stage chloroquine sensitive Plasmodium falciparum 3D7 infected in erythrocytes; type: functional
Plasmodium falciparum [9] = assay: Antiplasmodial activity against GFP expressing sorbitol-synchronized ring stage laboratory adapted Plasmodium falciparum 3D7HT assessed as reduction in infectivity by measuring inhibition of gametocyte formation at 10 uM treated for 72 hrs followed by replacement with fresh media without compound for 24 hrs and measured on day 4 by giemsa staining based microscopic analysis; type: functional
Plasmodium falciparum [10] = assay: as §2, with “atovaquone” for “chloroquine, mefloquine and pyrimethamine”, “TM90C6B” for “Dd2”, “Y268S mutation in CYTB gene, Y184F” for “N86F/M74I/ N75E/K75T”, “S436F/A437G/A581G” for “S436F/A437G/A613S”; type: functional
Plasmodium falciparum [11] = assay: (§3) Antiplasmodial activity against sorbitol-synchronized ring stage atovaquone resistant Plasmodium falciparum TM90C6B harboring Y268S mutation in CYTB gene, Y184F mutation in MDR1 gene, N51I/C59R/S108N mutation in DHFR gene and S436F/A437G/A581G mutation in DHPS gene infected in erythrocytes measured after 48 hrs by SYBR green dye based fluorescence analysis; type: functional, organism-based; details: Erythrocyte
Plasmodium falciparum [12] = assay: as §3, with “chloroquine, mefloquine and pyrimethamine” for “atovaquone”, “Dd2” for “TM90C6B”, “N86F/M74I/ N75E/[…]” for “Y268S mutation in CYTB gene, Y184F”, “S436F/A437G/A613S” for “S436F/A437G/A581G”; type: functional, organism-based; details: Dd2, Erythrocyte
Plasmodium falciparum [13] = assay: Antiplasmodial activity against sorbitol-synchronized ring stage MMV848 resistant Plasmodium falciparum 3D7 infected in erythrocytes measured after 48 hrs by SYBR green dye based fluorescence analysis; type: functional, organism-based; details: 3D7, Erythrocyte
Plasmodium falciparum [14] = assay: Antiplasmodial activity against sorbitol-synchronized ring stage chloroquine resistant Plasmodium falciparum K1 infected in erythrocytes measured after 48 hrs by SYBR green dye based fluorescence analysis; type: functional, organism-based; details: K1, Erythrocyte
Plasmodium falciparum [15] = assay: as §1, with “MMV848” for “2-(1,1-difluoroethyl)-5-methyl-N-(4-(pentafluoro-l6-sulfaneyl)phenyl)-[1,2,4]triazolo[1,5-a]pyrimidin-7-amine”, “3D7” for “Dd2”; type: functional
[16] = molecular target: T2, Dihydroorotate dehydrogenase (quinone), mitochondrial (Plasmodium falciparum (isolate 3D7), UniProt Q08210); assay: Inhibition of Plasmodium falciparum DHODH
T2 sequence (Q08210 whole entry): T1 sequence (whole entry)

Plasmodium falciparum [17] = assay: Potency index, ratio of chloroquine IC50 to test compound IC50 for antiplasmodial activity chloroquine-resistant against Plasmodium falciparum W2 by anti-[…] incorporation assay; type: functional
Plasmodium falciparum [18] = assay: Antiplasmodial activity against Plasmodium falciparum infected in erythrocytes assessed as reduction in parasite growth at 500 nM measured until 24 hrs; type: functional, organism-based; details: Erythrocyte
[19] = Ratio of IC50 for Plasmodium falciparum infected in erythrocytes measured after 24 hrs by SYBR green dye based fluorescence assay to IC50 for Plasmodium falciparum infected in erythrocytes measured after 72 hrs by SYBR green dye based fluorescence assay; type: functional, Erythrocyte
Plasmodium falciparum [20] = assay: Antiplasmodial activity against Plasmodium falciparum infected in erythrocytes assessed as induction of parasite death by measuring irreversible chromatin condensation with appearance of pyknotic nuclei at 300 nM measured after 24 hrs; type: functional, organism-based; details: Erythrocyte
Plasmodium falciparum [21] = assay: as §1, with “chloroquine” for “2-(1,1-difluoroethyl)-5-methyl-N-(4-(pentafluoro-l6-sulfaneyl)phenyl)-[1,2,4]triazolo[1,5-a]pyrimidin-7-amine”, “K1” for “Dd2”; type: functional
Plasmodium falciparum [22] = assay: Antiplasmodial activity against Plasmodium falciparum 3D7; type: functional, organism-based

Row | Compound | Activity [1] [%] | inhibition [2] [%] | Percent inhibition of ookinete formation at 10 µM (Plasmodium berghei) [%] | CC50 at 72 h [3] [nM] | selectivity ratio [4] | IC50 (Plasmodium falciparum [5]) [nM] | further results
1 | Cc1cc(NCCCCNc2ccnc3cc(Cl)ccc23)n2nc(C)cc2n1 | 89.4 | < 50 | 22 | > 100000 | > 1570 |  | 
2 | Cc1cc(Nc2ccc(S(F)(F)(F)(F)F)cc2)n2nc(C(C)(F)F)nc2n1 [DSM-265] | < 10 |  |  |  |  | 4 | IC50 (Plasmodium falciparum [6]): 12 nM; Ratio IC50 (Plasmodium falciparum [7]): 3
3 | Cc1cc(N2CCN(c3ccnc4cc(Cl)ccc34)CC2)n2nc(C(F)(F)F)nc2n1 | 105 | < 50 |  |  |  | 7000 | 
4 | Cc1cc(NCCCCCCCNc2ccnc3cc(Cl)ccc23)n2nc(C)nc2n1 | 78.8 | < 50 | 0 | 17000 | 142 | 120 | Ratio IC50 (Plasmodium falciparum [8]): 1.4; inhibition at 10 µM (Plasmodium falciparum [9]): 85.8%; Ratio IC50 (Plasmodium falciparum [10]): 1.5; IC50 (Plasmodium falciparum [6]): 150 nM; IC50 (Plasmodium falciparum [11]): 180 nM; Ratio IC50 (Plasmodium falciparum [7]): 1.3; IC50 (Plasmodium falciparum [12]): 170 nM; IC50 (Plasmodium falciparum [13]): 50 nM; IC50 (Plasmodium falciparum [14]): 210 nM; Ratio IC50 (Plasmodium falciparum [15]): 0.4
5 | Cc1cc(Nc2ccc3ccccc3c2)n2nc(C(F)(F)F)nc2n1 |  |  |  |  |  |  | IC50 [16]: 700 nM; Ratio IC50 (Plasmodium falciparum [17]): 10
6 | CCc1nc(N)nc(N)c1-c1ccc(Cl)cc1 [PYRIMETHAMINE] |  |  |  |  |  |  | Activity (Plasmodium falciparum [18]): inactive; Ratio IC50 [19]: 3
7 | C[C@H]1[C@H](OC(=O)CCC(=O)O)O[C@@H]2O[C@@]3(C)CC[C@H]4[C@H](C)CC[C@@H]1[C@@]24OO3 [ARTESUNATE] |  |  |  |  |  |  | Activity (Plasmodium falciparum [20]): Active; Ratio IC50 [19]: 1.04
8 | Cc1cc(N2CCN(c3ccnc4cc(Cl)ccc34)CC2)n2nc(C)nc2n1 | 93 | < 50 |  |  |  | > 10000 | 
9 | Cc1cc(NCCCCNc2ccnc3cc(Cl)ccc23)n2nc(C(F)(F)F)nc2n1 | 80.8 | < 50 | 42 | > 25000 | > 81 | 310 | inhibition at 10 µM (Plasmodium falciparum [9]): 43%; Ratio IC50 (Plasmodium falciparum [21]): 1; IC50 (Plasmodium falciparum [14]): 300 nM
10 | Clc1ccc2c(N3CCN(CCCN4CCN(c5ccnc6cc(Cl)ccc56)CC4)CC3)ccnc2c1 [PIPERAQUINE] |  |  |  |  |  |  | IC50 (Plasmodium falciparum [22]): 60 nM
